Columns and labels:
Type in all cases: cell-based
[1] = system: Hh pathway-dependent osteoblast differentiation; assay: C3H10T(1/2) cell assay, alkaline phosphatase
Method: C3H10T(1/2) cells were obtained from ATCC and cultured in DMEM (Invitrogen, 11965) containing 10% (v/v) fetal bovine serum (Invitrogen, No. 26140), and 1× PenStrep (Gibco, 15140).
(§1) All test compounds were dissolved in DMSO at 50 mM, serially diluted by 1:3, 1:4 or 1:5 in a 96-well translucent microplate (Greiner bio-one, 650201) and stored at −20° C. These serial dilutions were added to assay media freshly with final DMSO concentration of 0.2% (v/v).
The C3H10T(1/2) cell assay provides a measure of Hh pathway-dependent osteoblast differentiation. C3H10T(1/2) cells were seeded into a 96-well plate (20,000 cells/well), cultured for 30 hrs and then incubated with test compounds in DMEM (Invitrogen, 11965) containing 0.5% (v/v) fetal bovine serum (Invitrogen, 26140), 1× PenStrep (Gibco, 15140), and 10% (v/v) Shh-N-conditioned medium for 44 hrs. The cells were lysed with lysis buffer (50 μL/well) containing 50 mM Tris-HCl, pH 9.5, 150 mM NaCl, 50 mM MgCl2, and 1% (v/v) Triton X-100. 10 μL of the obtained lysate were analyzed for alkaline phosphatase activities using CDP-Star Substrate (Applied Biosystems, T2146) reagent (50 μL/well) on a microplate luminometer (Veritas). Biological triplicates were analyzed for each test compounds.

Gli1 = biological target: T1, Gli1 (Homo sapiens, UniProt P08151); assay: Overexpression of Gli1 in NIH-3T3 cells, firefly luciferase reporter
T1 construct: expressed in transfected cells; host or cells: NIH-3T3 (mouse fibroblasts)
T1 sequence (P08151 1-1106): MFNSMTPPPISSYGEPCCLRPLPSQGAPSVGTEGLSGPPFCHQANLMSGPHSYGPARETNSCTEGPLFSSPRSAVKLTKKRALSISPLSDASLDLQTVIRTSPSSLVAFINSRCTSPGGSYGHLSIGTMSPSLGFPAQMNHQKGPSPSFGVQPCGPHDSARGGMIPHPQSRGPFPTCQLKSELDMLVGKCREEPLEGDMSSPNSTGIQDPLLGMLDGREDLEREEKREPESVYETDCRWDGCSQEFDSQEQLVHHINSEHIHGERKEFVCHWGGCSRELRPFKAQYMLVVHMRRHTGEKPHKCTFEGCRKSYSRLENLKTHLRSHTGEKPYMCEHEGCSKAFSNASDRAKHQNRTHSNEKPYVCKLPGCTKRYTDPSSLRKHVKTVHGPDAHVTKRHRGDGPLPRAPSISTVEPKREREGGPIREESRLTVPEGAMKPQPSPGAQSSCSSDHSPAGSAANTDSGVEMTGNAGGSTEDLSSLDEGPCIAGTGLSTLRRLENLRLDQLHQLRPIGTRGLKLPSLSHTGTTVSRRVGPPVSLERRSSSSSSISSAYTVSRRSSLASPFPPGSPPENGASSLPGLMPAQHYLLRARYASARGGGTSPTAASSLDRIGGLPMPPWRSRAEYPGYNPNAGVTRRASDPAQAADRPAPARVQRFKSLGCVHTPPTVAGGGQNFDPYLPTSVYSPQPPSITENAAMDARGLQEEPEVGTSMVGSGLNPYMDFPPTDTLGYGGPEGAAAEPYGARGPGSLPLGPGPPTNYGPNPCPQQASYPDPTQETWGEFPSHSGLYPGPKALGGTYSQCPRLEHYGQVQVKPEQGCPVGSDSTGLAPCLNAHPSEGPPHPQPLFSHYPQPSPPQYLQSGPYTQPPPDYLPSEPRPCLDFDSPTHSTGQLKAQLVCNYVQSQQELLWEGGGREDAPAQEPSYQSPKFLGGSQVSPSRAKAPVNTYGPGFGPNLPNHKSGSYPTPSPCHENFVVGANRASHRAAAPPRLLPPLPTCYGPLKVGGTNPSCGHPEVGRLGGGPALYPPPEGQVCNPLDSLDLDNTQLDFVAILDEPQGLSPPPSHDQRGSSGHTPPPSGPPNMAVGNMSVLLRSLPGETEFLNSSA
Method: NIH-3T3 cells were obtained from ATCC and cultured in DMEM (Invitrogen, 11965) containing 10% (v/v) calf serum (ATCC, 30-2030), 1 mM sodium pyruvate (Invitrogen, 11360) and 1× PenStrep (Gibco, 15140).
as §1
Overexpression of Gli1 or Gli2 in NIH-3T3 cells provides a measure of Gli1- or Gli1/Gli2-induced pathway activity, respectively. NIH 3T3 cells were seeded into a 24-well plate (35,000 cells/well) and cultured for 30 hrs. […] The cells were lysed with passive lysis buffer (200 μL/well), and 10 μL of the obtained lysate were analyzed for firefly and Renilla luciferase activities using Dual-Luciferase Reporter Assay System (Promega, E1960) (50 μL/well of each reagent) on a microplate luminometer (Veritas). Biological triplicates were analyzed for each test compounds.

Gli2 = Gli2 trafficking assay in NIH 3T3 cells; details: ShhN treatment
Method: NIH 3T3 cells were also employed in an assay to quantify Gli2 trafficking NIH-3T3 cells were seeded into 24-well plates containing poly-D-lysine-coated 12-mm glass coverslips (65,000 cells/well) and cultured for 24 hrs. […] Each compound or vehicle treatment was conducted in biological triplicates in the presence or absence of 10% (v/v) ShhN-conditioned medium. The cells were subsequently fixed in PBS containing 4% (v/v) paraformaldehyde for 12 min at room temperature, washed three times with PBS, permeabilized in PBS containing 0.5% (v/v) Triton X-100 for 5 min, and washed again twice in PBS. […] After three PBS washes, the coverslips were mounted onto slides using Prolong Gold Antifade Reagent with DAPI (Invitrogen, P36931). The cells were imaged using a Plan Apochromat 63×/1.4-0.6 oil immersion objective on an upright Leica DM4500B compound microscope. Ciliary Gli2 levels were quantified by determining total pixel intensity within a circular region manually placed at the distal end of each cilium and subtracting background fluorescence in an adjacent region of equivalent size. A total of 30 cilia from three coverslips were analyzed to determine the average ciliary Gli2 level for each experimental condition as a measure of Gli2 trafficking.

Gli3 = assay: Hh ligand-dependent Gli3 processing in Shh-EGFP cells
Method: Each compound or vehicle treatment was conducted in the presence or absence of 10% (v/v) Shh-N-conditioned medium. The cells were then lysed by incubation with SDS-PAGE loading buffer composed of 50 mM Tris-HCl, pH 6.8, 2% (w/v) SDS, 8% (v/v) glycerol, 100 mM DTT, 0.1 mg/mL bromophenol blue, EDTA-free protease inhibitor cocktail (Roche) and Phosstop (Roche) for 5 min in a cold room. […] The membranes were dehydrated with methanol and probed overnight at 4° C. with goat polyclonal anti-Gli3 antibody (1 μg/mL; R & D Systems, AF3690) in PBS containing 4% (w/v) non-fat dry milk and 0.01% (v/v) Tween-20 (immunoblot blocking buffer). […] Band intensities of Gli3FL and Gli3R were quantified using ImageJ64 software (NIH), and three independent experiments were used to determine the average Gli3FL/Gli3R ratio for each compound.

## CCOc1ccc(-[n+]2cc(-c3ccc(Br)cc3)n3c2CCCCC3)cc1 [Compound A-1]
[1]; Osteoblast, C3H10T(½) w/ ShhN
  IC50: 5.2 ± 3.7 µM
[1]; ShhN-conditioned medium
  Differentiation of C3H10T1/2 cells into alkaline-phosphatase-expressing osteoblasts: blocked
Gli1
  Exogenous Gli1 activity: potently blocked
Gli2
  Effect on ShhN-induced Gli2 accrual at the ciliary distal tip: did not inhibit this process
Gli3
  Effect on Gli3FL phosphorylation: Nor did the compound prevent Gli3FL phosphorylation
Gli3; ShhN stimulation
  Effect on Gli3 processing, Gli3FL/Gli3R ratio: did not perturb Gli3 processing
